Experimental data as given in EP0609437B1, “NOVEL SPHINGOGLYCOLIPID AND USE THEREOF” (KIRIN BEER KABUSHIKI KAISHA, priority 1991, dated 1993).

Experiments:
B16 mouse melanoma cells = test: Anti-tumor activity against B16 mouse melanoma inoculated subcutaneously; format: in vivo; settings: Mus musculus, iv, 480 h; maximum tumor growth inhibition rate during the test period of 20 days; female BDF1 mice; 0.1 mg/kg intravenously on days 1, 5 and 9 after s.c. inoculation; read-out: TGIR (%)
Procedure: Anti-tumor activity against B16 mouse melanoma inoculated subcutaneously.
Experiment was carried out with the groups of 6 female BDF1 mice (6 weeks old) purchased from Japan SLC Inc., B16 mouse melanoma cells (1 × 10^6 cells/mouse) were inoculated subcutaneously in the rear region of mice, and the sample prepared in a concentration of 0.1 mg/kg was administered intravenously at a dose of 0.2 ml/20g/mouse after 1, 5 and 9 days from inoculation (the day of inoculation being set as 0 day). The volume of the tumor at the hypodermis of the rear region [(longer diameter × shorter diameter × height)/2] was measured on 8, 12, 16 and 20 days after inoculation, and the tumor growth inhibition rate (TGIR) of each sample was determined. TGIR was calculated from the following equation: TGIR (%) = (1 - T/C) × 100 [formula] wherein C represents a tumor volume of the control group and T represents a tumor volume of the group to which the sample was administered.
In this connection, respective test runs were divided by broken lines.

[1] = system: spleen cells of C57BL/6 mouse and pancreatic cells of BALB/c mouse; test: Lymphocyte mixed culture reaction (mouse MLR), uptake of 3H-TdR; format: cell-based; settings: Mus musculus, Lymphocyte, 50 h, cultured for 42 hours, then 8 hours with 3H-TdR, read-out: Uptake of ^3H-TdR (% of control); for activity at 1 µg/mL: sample concentration 10^0 µg/ml; for activity at 0.1 µg/mL: sample concentration 10^-1 µg/ml; for activity at 0.01 µg/mL: sample concentration 10^-2 µg/ml
Procedure: Experiment was carried out with the spleen cells of C57BL/6 mouse which had been treated with mitomycin C (50 µg/ml, 30 min) as the stimulator and with the […] cells of BALB/c mouse as the responder. These […] cells were suspended to a concentration of 2 × 10^6 cells/ml with a culture medium of 10% FCS RPMI 1640, respectively. These cells (50 µl/well) and a sample (10 µl/well) were plated in a 96 well round-bottomed plate and cultured for 42 hours* under the condition of 37°C and 5% CO2. ^3H-thymidine (^3H-TdR) was added in a dose of 0.5 µCi/well. After 8 hours, the cells were harvested and subjected to the measurement of the uptake of ^3H-TdR by a liquid scintillation counter.
*The samples of the compounds 32, 33 and 34 were cultured for 4 days.

CCCCCCCCCCCCCCCCCCCCCCCC(=O)N[C@@H](CO[C@H]1O[C@H](CO)[C@H](O)[C@H](O)[C@H]1O)[C@H](O)CCCCCCCCCCCCCCC [Compound 1, (2S,3R)-1-(α-D-galactopyranosyloxy)-2-tetracosanoylamino-3-octadecanol]
inhibition in vivo at 0.1 mg/kg (B16 mouse melanoma cells): 91.4%
activity at 1 µg/mL [1]: 359%
activity at 0.1 µg/mL [1]: 151%
activity at 0.01 µg/mL [1]: 136%

CCCCCCCCCCCCCCCCCCCCCC(=O)N[C@@H](CO[C@H]1O[C@H](CO)[C@H](O)[C@H](O)[C@H]1O)[C@H](O)CCCCCCCCCCCCCCC [Compound 2, (2S,3R)-2-docosanoylamino-1-(α-D-galactopyranosyloxy)-3-octadecanol]
inhibition in vivo at 0.1 mg/kg (B16 mouse melanoma cells): 53.1%
activity at 1 µg/mL [1]: 329%
activity at 0.1 µg/mL [1]: 115%
activity at 0.01 µg/mL [1]: 103%

CCCCCCCCCCCCCCCCCCCC(=O)N[C@@H](CO[C@H]1O[C@H](CO)[C@H](O)[C@H](O)[C@H]1O)[C@H](O)CCCCCCCCCCCCCCC [Compound 3, (2S,3R)-1-(α-D-galactopyranosyloxy)-2-icosanoylamino-3-octadecanol]
inhibition in vivo at 0.1 mg/kg (B16 mouse melanoma cells): 56.9%
activity at 1 µg/mL [1]: 254%
activity at 0.1 µg/mL [1]: 117%
activity at 0.01 µg/mL [1]: 110%

CCCCCCCCCCCCCCCCCC(=O)N[C@@H](CO[C@H]1O[C@H](CO)[C@H](O)[C@H](O)[C@H]1O)[C@H](O)CCCCCCCCCCCCCCC [Compound 4, (2S,3R)-1-(α-D-galactopyranosyloxy)-2-octadecanoylamino-3-octadecanol]
inhibition in vivo at 0.1 mg/kg (B16 mouse melanoma cells): 78.1%
activity at 1 µg/mL [1]: 269%
activity at 0.1 µg/mL [1]: 158%
activity at 0.01 µg/mL [1]: 134%

CCCCCCCCCCCCCCC[C@@H](O)[C@H](CO[C@H]1O[C@H](CO)[C@H](O)[C@H](O)[C@H]1O)NC(=O)CCCCCCCCC [Compound 6, (2S,3R)-2-decanoylamino-1-(α-D-galactopyranosyloxy)-3-octadecanol]
inhibition in vivo at 0.1 mg/kg (B16 mouse melanoma cells): 73.7%
activity at 1 µg/mL [1]: 498%
activity at 0.1 µg/mL [1]: 190%
activity at 0.01 µg/mL [1]: 187%

CCCCCCCCCCCCCCC[C@@H](O)[C@H](CO[C@H]1O[C@H](CO)[C@H](O)[C@H](O)[C@H]1O)NC(=O)CCCCCCC [Compound 7, (2S,3R)-1-(α-D-galactopyranosyloxy)-2-octanoylamino-3-octadecanol]
inhibition in vivo at 0.1 mg/kg (B16 mouse melanoma cells): 18.5%
activity at 1 µg/mL [1]: 853%
activity at 0.1 µg/mL [1]: 576%
activity at 0.01 µg/mL [1]: 207%

CCCCCCCCCCCCCCC[C@@H](O)[C@H](CO[C@H]1O[C@H](CO)[C@H](O)[C@H](O)[C@H]1O)NC(C)=O [Compound 8, (2S,3R)-2-acetamino-1-(α-D-galactopyranosyloxy)-3-octadecanol]
inhibition in vivo at 0.1 mg/kg (B16 mouse melanoma cells): 22.1%
activity at 1 µg/mL [1]: 297%
activity at 0.1 µg/mL [1]: 189%
activity at 0.01 µg/mL [1]: 96%

CCCCCCCCCCCCCCCCCCCCCCCC(=O)N[C@@H](CO[C@H]1O[C@H](CO)[C@H](O)[C@H](O)[C@H]1O)[C@H](O)CCCCCCCCCCC [Compound 9, (2S,3R)-1-(α-D-galactopyranosyloxy)-2-tetracosanoylamino-3-tetradecanol]
inhibition in vivo at 0.1 mg/kg (B16 mouse melanoma cells): 71.5%
activity at 1 µg/mL [1]: 460%
activity at 0.1 µg/mL [1]: 193%
activity at 0.01 µg/mL [1]: 176%

CCCCCCCCCCCCCC(=O)N[C@@H](CO[C@H]1O[C@H](CO)[C@H](O)[C@H](O)[C@H]1O)[C@H](O)CCCCCCCCCCCCC [Compound 10, (2S,3R)-1-(α-D-galactopyranosyloxy)-2-tetradecanoylamino-3-hexadecanol]
inhibition in vivo at 0.1 mg/kg (B16 mouse melanoma cells): 76.5%
activity at 1 µg/mL [1]: 610%
activity at 0.1 µg/mL [1]: 381%
activity at 0.01 µg/mL [1]: 157%

CCCCCCCCCCCCCC(=O)N[C@H](CO[C@H]1O[C@H](CO)[C@H](O)[C@H](O)[C@H]1O)[C@@H](O)CCCCCCCCCCCCC [Compound 11, (2R,3S)-1-(α-D-galactopyranosyloxy)-2-tetradecanoylamino-3-hexadecanol]
inhibition in vivo at 0.1 mg/kg (B16 mouse melanoma cells): 55.9%
activity at 1 µg/mL [1]: 128%
activity at 0.1 µg/mL [1]: 105%
activity at 0.01 µg/mL [1]: 95%

CCCCCCCCCCCCCC(=O)N[C@@H](CO[C@H]1O[C@H](CO)[C@H](O)[C@H](O)[C@H]1O)[C@@H](O)CCCCCCCCCCCCC [Compound 12, (2S,3S)-1-(α-D-galactopyranosyloxy)-2-tetradecanoylamino-3-hexadecanol]
inhibition in vivo at 0.1 mg/kg (B16 mouse melanoma cells): 41.8%
activity at 1 µg/mL [1]: 123%
activity at 0.1 µg/mL [1]: 99%
activity at 0.01 µg/mL [1]: 104%

CCCCCCCCCCCCCC(=O)N[C@H](CO[C@H]1O[C@H](CO)[C@H](O)[C@H](O)[C@H]1O)[C@H](O)CCCCCCCCCCCCC [Compound 13, (2R,3R)-1-(α-D-galactopyranosyloxy)-2-tetradecanoylamino-3-hexadecanol]
inhibition in vivo at 0.1 mg/kg (B16 mouse melanoma cells): 28.2%
activity at 1 µg/mL [1]: 139%
activity at 0.1 µg/mL [1]: 106%
activity at 0.01 µg/mL [1]: 107%

CCCCCCCCCCCCCCCCCCCCCC[C@@H](O)C(=O)N[C@@H](CO[C@H]1O[C@H](CO)[C@H](O)[C@H](O)[C@H]1O)[C@H](O)CCCCCCCCCCCCCCC [Compound 14, (2S,3R)-1-(α-D-galactopyranosyloxy)-2-[(R)-2-hydroxytetracosanoylamino]-3-octadecanol]
inhibition in vivo at 0.1 mg/kg (B16 mouse melanoma cells): 84%
activity at 1 µg/mL [1]: 289%
activity at 0.1 µg/mL [1]: 197%
activity at 0.01 µg/mL [1]: 139%

CCCCCCCCCCCCC/C=C/[C@@H](O)[C@H](CO[C@H]1O[C@H](CO)[C@H](O)[C@H](O)[C@H]1O)NC(=O)CCCCCCCCCCCCCCCCC [Compound 15, (2S,3R,4E)-1-(α-D-galactopyranosyloxy)-2-octadecanoylamino-4-octadecen-3-ol]
inhibition in vivo at 0.1 mg/kg (B16 mouse melanoma cells): 61.9%
activity at 1 µg/mL [1]: 360%
activity at 0.1 µg/mL [1]: 165%
activity at 0.01 µg/mL [1]: 144%

CCCCCCCCCCCCCCCCCCCCCCCC(=O)N[C@@H](CO[C@H]1O[C@H](CO)[C@H](O)[C@H](O)[C@H]1O)[C@H](O)[C@H](O)CCCCCCCCCCCCCC [Compound 16, (2S,3S,4R)-1-(α-D-galactopyranosyloxy)-2-tetracosanoylamino-3,4-octadecanediol]
inhibition in vivo at 0.1 mg/kg (B16 mouse melanoma cells): 65%
activity at 1 µg/mL [1]: 321%
activity at 0.1 µg/mL [1]: 176%
activity at 0.01 µg/mL [1]: 160%

CCCCCCCCCCCCCCCCCCCCCCCC(=O)N[C@@H](CO[C@H]1O[C@H](CO)[C@H](O)[C@H](O)[C@H]1O)[C@H](O)[C@H](O)CCCCCCCCCCCCC [Compound 17, (2S,3S,4R)-1-(α-D-galactopyranosyloxy)-2-tetracosanoylamino-3,4-heptadecanediol]
inhibition in vivo at 0.1 mg/kg (B16 mouse melanoma cells): 58%
activity at 1 µg/mL [1]: 410%
activity at 0.1 µg/mL [1]: 190%
activity at 0.01 µg/mL [1]: 143%

CCCCCCCCCCCCCCCCCCCCCCCC(=O)N[C@@H](CO[C@H]1O[C@H](CO)[C@H](O)[C@H](O)[C@H]1O)[C@H](O)[C@H](O)CCCCCCCCCCC [Compound 18, (2S,3S,4R)-1-(α-D-galactopyranosyloxy)-2-tetracosanoylamino-3,4-pentadecanediol]
inhibition in vivo at 0.1 mg/kg (B16 mouse melanoma cells): 66.3%
activity at 1 µg/mL [1]: 482%
activity at 0.1 µg/mL [1]: 176%
activity at 0.01 µg/mL [1]: 138%

CCCCCCCCCCCCCCCCCCCCCCCC(=O)N[C@@H](CO[C@H]1O[C@H](CO)[C@H](O)[C@H](O)[C@H]1O)[C@H](O)[C@H](O)CCCCCCC [Compound 19, (2S,3S,4R)-1-(α-D-galactopyranosyloxy)-2-tetracosanoylamino-3,4-undecanediol]
inhibition in vivo at 0.1 mg/kg (B16 mouse melanoma cells): 80.2%
activity at 1 µg/mL [1]: 345%
activity at 0.1 µg/mL [1]: 188%
activity at 0.01 µg/mL [1]: 144%

CCCCCCCCCCCCCCCCCCCCCCCCCC(=O)N[C@@H](CO[C@H]1O[C@H](CO)[C@H](O)[C@H](O)[C@H]1O)[C@H](O)[C@H](O)CCCCCCCCCCCCC [Compound 20, (2S,3S,4R)-1-(α-D-galactopyranosyloxy)-2-hexacosanoylamino-3,4-heptadecanediol]
inhibition in vivo at 0.1 mg/kg (B16 mouse melanoma cells): 73.7%
activity at 1 µg/mL [1]: 443%
activity at 0.1 µg/mL [1]: 188%
activity at 0.01 µg/mL [1]: 192%

CCCCCCCCCCCCCCCCCCCCCC[C@@H](O)C(=O)N[C@@H](CO[C@H]1O[C@H](CO)[C@H](O)[C@H](O)[C@H]1O)[C@H](O)[C@H](O)CCCCCCCCCCCCCC [Compound 21, (2S,3S,4R)-1-(α-D-galactopyranosyloxy)-2-[(R)-2-hydroxytetracosanoylamino]-3,4-octadecanediol]
inhibition in vivo at 0.1 mg/kg (B16 mouse melanoma cells): 57.9%
activity at 1 µg/mL [1]: 304%
activity at 0.1 µg/mL [1]: 149%
activity at 0.01 µg/mL [1]: 142%
